Measurements taken from paper PMC8143291, “Cytotoxicity and Microbicidal Activity of Commonly Used Organic Solvents: A Comparative Study and Application to a Standardized Extract from Vaccinium macrocarpon” (Toxics, 2021).

How the values were obtained:
[1] = system: S. Aureus MRSA NBIMCC 8327; test: Broth microdilution MIC/MBC; assay type: cell-based, Staphylococcus aureus; conditions: 24 h exposure; v/v; n = 3
Description: (§1) The bacterial strains used for AST of the solvents included: Staphylococcus aureus (ATCC 29213), Staphylococcus aureus—MRSA (NBIMCC 8327—resistant to methicillin and oxacillin, National Bulgarian Collection for Industrial Microorganisms and Cell Cultures, Sofia, Bulgaria), Streptococcus pyogenes (SAIMC 10535, Collection of the Stephan Angeloff Institute of Microbiology, Sofia, Bulgaria), Enterococcus faecalis (ATCC 29212), Escherichia coli (ATCC 35218), Pseudomonas aeruginosa (ATCC 27853), and Yersinia enterocolitica (IP864 O:3, Collection of Institut Pasteur, Paris, France). The selected strains are the most often investigated ones in the AST research studies in correspondence with the standard ISO 20776-1 Part 1: Reference method for testing the in vitro activity of antimicrobial agents against rapidly growing aerobic bacteria involved in infectious diseases. The antimycotic activity was tested on Candida albicans (CBS 562, Utrecht, The Netherlands). The strains S. aureus, MRSA, E. coli and E. faecalis were grown on Mueller–Hinton broth/agar (MHB/MHA); S. pyogenes, P. aeruginosa, Y. enterocolitica and C. albicans were grown on brain heart infusion (BHI) broth/agar; E. coli was also grown on Luria–Bertani broth/agar (LBB/LBA).
(§2) The minimum inhibitory concentration (MIC) for each solvent was estimated by the broth microdilution method (BMD) in 96-well microplates, following ISO 20776/1-2006 [3] and CLSI protocols. Briefly, a standardized bacterial inoculum was prepared from each bacterial species by suspending 3–4 colonies from a pure culture into 4 mL sterile saline. The turbidity of the inocula was adjusted to McFarland 0.5 (1.0 × 10^8 CFU/mL, λ = 600 nm), and 50 µL were resuspended in 10 mL of the appropriate culture medium for each strain. The bacterial inocula were added to microtiter trays containing equivalent volumes of medium loaded with the relevant solvent in concentrations varying from 0.025 to 25% volume fraction. The final volume of each sample was 100 µL/well. The plates were incubated at 37 °C for 24 h. The pure culture medium served as a negative control. Every MIC was evaluated visually as the lowest concentration without visible growth. […] MBC was defined as the lowest compound’s concentration reducing the colony growth of the initial bacterial inoculum by ≥ 99.9%.

[2] = system: S. Aureus ATCC 29213; test: Broth microdilution MIC/MBC; assay type: cell-based, Staphylococcus aureus; conditions: 24 h exposure; v/v; n = 3
Description: as §1, §2

[3] = system: P. aeruginosa ATCC 27853; test: Broth microdilution MIC/MBC; assay type: cell-based, Pseudomonas aeruginosa; conditions: 24 h exposure; v/v; n = 3
Description: as §1, §2

[4] = system: E. coli ATCC 35218; test: Broth microdilution MIC/MBC; assay type: cell-based, Escherichia coli; conditions: 24 h exposure, v/v, n = 3
Description: as §1, §2

[5] = system: S. pyogenes SAIMC 10535; test: Broth microdilution MIC/MBC; assay type: cell-based, Streptococcus pyogenes; conditions: 24 h exposure; v/v; n = 3
Description: as §1, §2

[6] = system: E. faecalis ATCC 29212; test: Broth microdilution MIC/MBC; assay type: cell-based, Enterococcus faecalis; conditions: 24 h exposure; v/v; n = 3
Description: as §1, §2

[7] = system: Y. enterocolitica IP 864 O: 3; test: Broth microdilution MIC/MBC; assay type: cell-based, Yersinia enterocolitica; conditions: 24 h exposure; v/v; n = 3
Description: as §1, §2

[8] = system: S. epidermidis; design: method as in doi:10.5580/b43; conditions: in the presence of 6% solvent; cited from earlier work

| Compound | MBC [1] | MIC [1] | MBC [2] | MIC [2] | MBC [3] | MIC [3] | MBC ([4]; in LBB) | MIC ([4]; in LBB) | MBC ([4]; in MHB) | MIC ([4]; in MHB) | MBC [5] | MIC [5] | MBC [6] | MIC [6] | MBC [7] | MIC [7] | survival [8] |
| --- | --- | --- | --- | --- | --- | --- | --- | --- | --- | --- | --- | --- | --- | --- | --- | --- | --- |
| C[S+](C)[O-] [DMSO, dimethyl sulfoxide] | >25% | 25% | >25% | 25% | >25% | 6.25% | >25% | 12.5% | >25% | 12.5% | >25% | 12.5% | >25% | 12.5% | 6.25% | 3.125% | 15% |
| CCO [EtOH, ethanol] | >25% | >25% | >25% | >25% | >25% | >25% | >25% | >25% | >25% | >25% | >25% | >25% | >25% | >25% | >25% | >25% | 26% |
| polyethylene glycol of average molecular weight 400 [PEG-400] | 25% | 25% | >25% | >25% | >25% | 25% | >25% | 25% | >25% | >25% | >25% | 25% | >25% | 25% | 12.5% | 12.5% |  |
